Numbered stars: 1 amine (or outer) side, 2 acyl side, 3 side chain; on linkers, the order of the positions; unused ones are H or OH. Bridge positions count the residues as written; N and C are the ends. Square brackets hold non-standard residues; d marks the D form. Peptide text beside a SMILES is read from it. * marks the point of attachment. X7 = O=C(O)CN1CCN(CC(=O)O)CCN(CC(=O)NC2CCN(CC(=O)*)CC2)CCN(CC(=O)O)CC1; X3 = O=C(O)CN1CCN(CC(=O)O)CCN(CC(=O)NCCCOCCOCCOCCCN*)CCN(CC(=O)O)CC1; DOTA = O=C(O)CN1CCN(CC(=O)O)CCN(CC(=O)*)CCN(CC(=O)O)CC1; Phe(3-Cl) = N[C@@H](Cc1cccc(Cl)c1)C(=O)O; Phe(4-Cl) = N[C@@H](Cc1ccc(Cl)cc1)C(=O)O; Arg(Me) = CNC(=N)NCCC[C@H](N)C(=O)O; NMeR = CN[C@@H](CCCNC(=N)N)C(=O)O; X1 = O=C(CC1CCN([*:1])CC1)[*:2]; Lys(Me) = CNCCCC[C@H](N)C(=O)O; dTle = CC(C)(C)[C@@H](N)C(=O)O; αMeD = C[C@](N)(CC(=O)O)C(=O)O; Suc = O=C(CCC(=O)[*:2])[*:1]; Tle = CC(C)(C)[C@H](N)C(=O)O; Isovaleryl = CC(C)CC(=O)*; Aib = CC(C)(N)C(=O)O; βAla = NCCC(=O)O
Experiments:
[1] = target: T1, PSMA-expressing C4-2 cells (Homo sapiens, UniProt Q04609); test: FACS binding assay (competition with 50 nM PSM-0183); details: FACS binding, PSMA-expressing C4-2 cells; pIC50 category; read-out: pIC50 [C4-2] CAT (converted)
T1 construct: PSMA-expressing C4-2 cells (ATCC, Cat. No. CRL-3314) were cultured in RPMI-1640; host or cells: C4-2 cells
Summary of the method: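 Competition format: fluorescent tracer PSM-0183 (50 nM) displaced from PSMA on C4-2 cells by a test compound titration over 1 h at 4 °C. Bound tracer was quantified as flow-cytometric AF488 median fluorescence after washing. Four-parameter logistic fits of MFI data gave IC50 and pIC50.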

[2] = target: T2, Fc-fusion protein of human PSMA (hPSMA-Fc) (Homo sapiens, UniProt Q04609); test: Surface plasmon resonance assay (Biacore T200, single cycle kinetic); format: binding; details: PSMA SPR assay, hPSMA-Fc, 25° C.; pKD category; read-out: pKD CAT (converted)
T2 construct: purchased Acro Biosystems PSA-H5264
Summary of the method: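 KD, expressed as pKD, came from 1:1 Langmuir fits of reference- and buffer-blank-subtracted SPR data. The runs were single-cycle kinetics at 25° C in HBST/0.1% DMSO over human PSMA-Fc, captured to ~1000 RU on a peptide-coated CM5 surface and regenerated with 10 mM glycine pH 1.5.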

T2 sequence (Q04609 44-750 limits assumed): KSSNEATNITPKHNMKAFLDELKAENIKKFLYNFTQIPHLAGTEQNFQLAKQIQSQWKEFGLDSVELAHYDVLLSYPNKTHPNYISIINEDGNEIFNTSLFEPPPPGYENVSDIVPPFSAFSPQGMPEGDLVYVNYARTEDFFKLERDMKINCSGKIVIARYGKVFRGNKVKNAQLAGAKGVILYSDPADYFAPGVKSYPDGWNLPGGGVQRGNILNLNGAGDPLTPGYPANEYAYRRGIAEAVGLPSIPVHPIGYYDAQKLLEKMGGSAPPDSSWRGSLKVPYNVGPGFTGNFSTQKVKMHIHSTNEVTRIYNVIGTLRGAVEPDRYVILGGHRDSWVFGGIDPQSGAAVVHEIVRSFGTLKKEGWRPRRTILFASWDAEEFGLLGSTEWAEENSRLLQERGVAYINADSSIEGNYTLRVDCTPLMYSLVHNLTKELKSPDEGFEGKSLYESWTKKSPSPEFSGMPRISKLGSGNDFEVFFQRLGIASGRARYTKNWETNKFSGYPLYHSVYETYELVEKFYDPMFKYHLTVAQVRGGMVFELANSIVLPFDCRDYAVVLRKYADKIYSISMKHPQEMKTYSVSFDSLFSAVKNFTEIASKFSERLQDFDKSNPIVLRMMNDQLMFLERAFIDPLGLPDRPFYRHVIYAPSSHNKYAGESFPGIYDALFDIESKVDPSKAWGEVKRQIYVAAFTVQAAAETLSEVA
T1 sequence (Q04609 whole entry): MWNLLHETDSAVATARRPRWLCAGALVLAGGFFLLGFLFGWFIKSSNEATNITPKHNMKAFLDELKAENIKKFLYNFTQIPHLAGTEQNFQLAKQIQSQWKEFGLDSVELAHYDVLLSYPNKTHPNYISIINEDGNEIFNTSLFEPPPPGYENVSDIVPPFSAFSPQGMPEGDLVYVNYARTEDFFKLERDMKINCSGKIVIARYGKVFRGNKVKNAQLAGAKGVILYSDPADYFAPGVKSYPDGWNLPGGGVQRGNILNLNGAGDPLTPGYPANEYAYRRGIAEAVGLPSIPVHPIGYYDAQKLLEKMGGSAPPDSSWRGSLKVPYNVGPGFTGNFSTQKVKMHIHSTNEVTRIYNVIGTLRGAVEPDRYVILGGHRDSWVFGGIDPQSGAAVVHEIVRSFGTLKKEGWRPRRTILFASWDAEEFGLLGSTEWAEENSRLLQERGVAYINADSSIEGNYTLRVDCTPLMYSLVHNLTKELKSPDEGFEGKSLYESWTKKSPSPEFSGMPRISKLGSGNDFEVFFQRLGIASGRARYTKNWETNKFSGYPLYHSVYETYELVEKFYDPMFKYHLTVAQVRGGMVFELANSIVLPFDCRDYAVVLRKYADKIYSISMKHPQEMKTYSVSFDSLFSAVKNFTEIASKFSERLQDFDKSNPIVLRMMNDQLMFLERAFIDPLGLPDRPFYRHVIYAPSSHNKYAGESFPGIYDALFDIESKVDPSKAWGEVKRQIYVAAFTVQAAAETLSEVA

Structure (SMILES) | IC50 [1] | Kd [2]
C[C@@H](O)[C@H](NC(=O)[C@@H](NC(=O)[C@@H]1CSSC[C@H](NC(=O)[C@H](Cc2ccc(Cl)cc2)NC(=O)C(C)(C)NC(=O)[C@@H](NC(=O)CC2CCN(C(=O)CN3CCN(CC(=O)O)CCN(CC(=O)O)CCN(CC(=O)O)CC3)CC2)[C@@H](C)O)C(=O)N[C@@H](CCCCN)C(=O)N(C)[C@@H](CCCNC(=N)N)C(=O)NC(C)(C)C(=O)N[C@@H](CC(N)=O)C(=O)N1)C(C)(C)C)C(N)=O [PSM-0340, DOTA-Cmp-Thr-Aib-Pcf-[Cys-Lys-Nmr-Aib-Asn-Cys]-Tle-Thr-NH2] ({DOTA}-[X1]T[Aib][Phe(4-Cl)]CK[NMeR][Aib]NC[Tle]T-NH2; disulfide 5-10) | 200 to 1260 nM | < 12.6 nM
CC(=O)NCCCC[C@@H]1NC(=O)[C@H](CCCCN)NC(=O)[C@@H](NC(=O)[C@H](Cc2ccc(Cl)cc2)NC(=O)C(C)(C)NC(=O)[C@@H](NC(=O)CC2CCN(C(=O)CN3CCN(CC(=O)O)CCN(CC(=O)O)CCN(CC(=O)O)CC3)CC2)[C@@H](C)O)CSSC[C@@H](C(=O)N[C@H](C(=O)N[C@H](C(N)=O)[C@@H](C)O)C(C)(C)C)NC(=O)[C@H](CC(N)=O)NC(=O)C(C)(C)NC1=O [PSM-0341, DOTA-Cmp-Thr-Aib-Pcf-[Cys-Lys-Lys(Ac)-Aib-Asn-Cys]-Tle-Thr-NH2] ({DOTA}-[X1]T[Aib][Phe(4-Cl)]CKK(Ac)[Aib]NC[Tle]T-NH2; disulfide 5-10) | 200 to 1260 nM | < 12.6 nM
C[C@@H]1NC(=O)[C@H](CCCNC(=N)N)NC(=O)[C@H](CCCCN)NC(=O)[C@@H](NC(=O)[C@H](Cc2ccccc2)NC(=O)[C@H](C)NC(=O)[C@@H](NC(=O)CCC(=O)NCCCOCCOCCOCCCNC(=O)CN2CCN(CC(=O)O)CCN(CC(=O)O)CCN(CC(=O)O)CC2)[C@@H](C)O)CSSC[C@@H](C(=O)N[C@H](C(=O)N[C@H](C(=O)N[C@@H](CC(=O)O)C(N)=O)[C@@H](C)O)C(C)(C)C)NC(=O)[C@H](CC(N)=O)NC1=O [PSM-0342, DOTA-Ttds-Thr-Ala-Phe-[Cys-Lys-Arg-Ala-Asn-Cys]-Tle-Thr-Asp-NH2] ({X3-Suc}-TAFCKRANC[Tle]TD-NH2; disulfide 4-9) | < 200 nM | 12.6 to 126 nM
C[C@@H](O)[C@H](NC(=O)[C@@H](NC(=O)[C@@H]1CSSC[C@H](NC(=O)[C@H](Cc2ccc(Cl)cc2)NC(=O)[C@@H](CCC(=O)O)NC(=O)[C@@H](NC(=O)CC2CCN(C(=O)CN3CCN(CC(=O)O)CCN(CC(=O)O)CCN(CC(=O)O)CC3)CC2)[C@@H](C)O)C(=O)N[C@@H](CCCCN)C(=O)N[C@@H](CCCNC(=N)N)C(=O)NC(C)(C)C(=O)N[C@@H](CC(N)=O)C(=O)N1)C(C)(C)C)C(N)=O [PSM-0343, DOTA-Cmp-Thr-glu-Pcf-[Cys-Lys-Arg-Aib-Asn-Cys]-Tle-Thr-NH2] ({DOTA}-[X1]T[dE][Phe(4-Cl)]CKR[Aib]NC[Tle]T-NH2; disulfide 5-10) | > 3160 nM | > 501 nM
CNC(=N)NCCC[C@@H]1NC(=O)[C@H](CCCCN)NC(=O)[C@@H](NC(=O)[C@H](Cc2ccc(Cl)cc2)NC(=O)C(C)(C)NC(=O)[C@@H](NC(=O)CC2CCN(C(=O)CN3CCN(CC(=O)O)CCN(CC(=O)O)CCN(CC(=O)O)CC3)CC2)[C@@H](C)O)CSSC[C@@H](C(=O)N[C@H](C(N)=O)C(C)(C)C)NC(=O)[C@H](CC(N)=O)NC(=O)C(C)(C)NC1=O [PSM-0345, DOTA-Cmp-Thr-Aib-Pcf-[Cys-Lys-Arg(Me)-Aib-Asn-Cys]-Tle-NH2] ({DOTA}-[X1]T[Aib][Phe(4-Cl)]CK[Arg(Me)][Aib]NC[Tle]-NH2; disulfide 5-10) | < 200 nM | < 12.6 nM
C[C@@H](O)[C@H](NC(=O)[C@@H](NC(=O)[C@@H]1CSSC[C@H](NC(=O)[C@H](Cc2ccc(Cl)cc2)NC(=O)[C@](C)(CC(=O)O)NC(=O)[C@@H](NC(=O)CC2CCN(C(=O)CN3CCN(CC(=O)O)CCN(CC(=O)O)CCN(CC(=O)O)CC3)CC2)[C@@H](C)O)C(=O)N[C@@H](CCCCN)C(=O)N[C@@H](CCCNC(=N)N)C(=O)NC(C)(C)C(=O)N[C@@H](CC(N)=O)C(=O)N1)C(C)(C)C)C(N)=O [PSM-0346, DOTA-Cmp-Thr-Amd-Pcf-[Cys-Lys-Arg-Aib-Asn-Cys]-Tle-Thr-NH2] ({DOTA}-[X1]T[αMeD][Phe(4-Cl)]CKR[Aib]NC[Tle]T-NH2; disulfide 5-10) | 200 to 1260 nM | 126 to 501 nM
CC(=O)N[C@H](C(=O)NC(C)(C)C(=O)N[C@@H](Cc1ccccc1)C(=O)N[C@@H]1CSSC[C@@H](C(=O)N[C@H](C(=O)N[C@H](C(N)=O)[C@@H](C)O)C(C)(C)C)NC(=O)[C@H](CC(N)=O)NC(=O)C(C)(C)NC(=O)[C@H](CCCNC(=N)N)NC(=O)[C@H](CCCCN)NC1=O)[C@@H](C)O [PSM-0348, Ac-Thr-Aib-Phe-[cys-Lys-Arg-Aib-Asn-Cys]-Tle-Thr-NH2] (Ac-T[Aib]F[dC]KR[Aib]NC[Tle]T-NH2; disulfide 4-9) | > 3160 nM | > 501 nM
CC(=O)NC(C)(C)C(=O)N[C@@H](Cc1ccc(Cl)cc1)C(=O)N[C@H]1CSSC[C@@H](C(=O)N[C@H](C(=O)N[C@H](C(=O)N2CCC(CC(=O)N[C@H](CCCCNC(=O)CN3CCN(CC(=O)O)CCN(CC(=O)O)CCN(CC(=O)O)CC3)C(N)=O)CC2)[C@@H](C)O)C(C)(C)C)NC(=O)[C@H](CC(N)=O)NC(=O)C(C)(C)NC(=O)[C@H](CCCNC(=N)N)NC(=O)[C@H](CCCCN)NC1=O [PSM-0349, Ac-Aib-Pcf-[Cys-Lys-Arg-Aib-Asn-Cys]-Tle-Thr-Cmp-lys(DOTA)-NH2] (Ac-[Aib][Phe(4-Cl)]CKR[Aib]NC[Tle]T[X1][dK](DOTA)-NH2; disulfide 3-8) | < 200 nM | < 12.6 nM
CC(=O)N[C@H](C(=O)NC(C)(C)C(=O)N[C@@H](Cc1ccccc1)C(=O)N[C@H]1CSSC[C@@H](C(=O)N[C@@H](C(=O)N[C@H](C(N)=O)[C@@H](C)O)C(C)(C)C)NC(=O)[C@H](CC(N)=O)NC(=O)C(C)(C)NC(=O)[C@H](CCCNC(=N)N)NC(=O)[C@H](CCCCN)NC1=O)[C@@H](C)O [PSM-0350, Ac-Thr-Aib-Phe-[Cys-Lys-Arg-Aib-Asn-Cys]-leu-Thr-NH2] (Ac-T[Aib]FCKR[Aib]NC[dTle]T-NH2; disulfide 4-9) | 200 to 1260 nM | 126 to 501 nM
CNC(=N)NCCC[C@@H]1NC(=O)[C@H](CCCCN)NC(=O)[C@@H](NC(=O)[C@H](Cc2ccc(Cl)cc2)NC(=O)C(C)(C)NC(=O)[C@@H](NC(=O)CC2CCN(C(=O)CN3CCN(CC(=O)O)CCN(CC(=O)O)CCN(CC(=O)O)CC3)CC2)[C@@H](C)O)CSSC[C@@H](C(=O)N[C@H](C(=O)N[C@H](C(N)=O)[C@@H](C)O)C(C)(C)C)NC(=O)[C@H](CC(N)=O)NC(=O)C(C)(C)NC1=O [PSM-0351, DOTA-Cmp-Thr-Aib-Pcf-[Cys-Lys-Arg(Me)-Aib-Asn-Cys]-Tle-Thr-NH2] ({DOTA}-[X1]T[Aib][Phe(4-Cl)]CK[Arg(Me)][Aib]NC[Tle]T-NH2; disulfide 5-10) | < 200 nM | < 12.6 nM
C[C@@H](O)[C@H](NC(=O)[C@@H](NC(=O)[C@@H]1CSSC[C@H](NC(=O)[C@H](Cc2ccc(Cl)cc2)NC(=O)C(C)(C)NC(=O)CCNC(=O)CN2CCN(CC(=O)O)CCN(CC(=O)O)CCN(CC(=O)O)CC2)C(=O)N[C@@H](CCCCN)C(=O)N[C@@H](CCCNC(=N)N)C(=O)NC(C)(C)C(=O)N[C@@H](CC(N)=O)C(=O)N1)C(C)(C)C)C(N)=O [PSM-0352, DOTA-Bal-Aib-Pcf-[Cys-Lys-Arg-Aib-Asn-Cys]-Tle-Thr-NH2] ({DOTA-βAla}-[Aib][Phe(4-Cl)]CKR[Aib]NC[Tle]T-NH2; disulfide 3-8) | < 200 nM | < 12.6 nM
CC(C)CC(=O)NC(C)(C)C(=O)N[C@@H](Cc1ccc(Cl)cc1)C(=O)N[C@H]1CSSC[C@@H](C(=O)N[C@H](C(=O)N[C@H](C(N)=O)[C@@H](C)O)C(C)(C)C)NC(=O)[C@H](CC(N)=O)NC(=O)[C@H](CCCCNC(=O)CN2CCC(NC(=O)CN3CCN(CC(=O)O)CCN(CC(=O)O)CCN(CC(=O)O)CC3)CC2)NC(=O)[C@H](CCCNC(=N)N)NC(=O)[C@H](CCCCN)NC1=O [PSM-0353, Iva-Aib-Pcf-[Cys-Lys-Arg-Lys(DOTA-APAc)-Asn-Cys]-Tle-Thr-NH2] (Isovaleryl-[Aib][Phe(4-Cl)]CKRK(X7)NC[Tle]T-NH2; disulfide 3-8) | < 200 nM | < 12.6 nM
CNCCCC[C@@H]1NC(=O)[C@@H](NC(=O)[C@H](Cc2cccc(Cl)c2)NC(=O)C(C)(C)NC(=O)[C@@H](NC(=O)CC2CCN(C(=O)CN3CCN(CC(=O)O)CCN(CC(=O)O)CCN(CC(=O)O)CC3)CC2)[C@@H](C)O)CSSC[C@@H](C(=O)N[C@H](C(N)=O)C(C)(C)C)NC(=O)[C@H](CC(N)=O)NC(=O)C(C)(C)NC(=O)[C@H](CCCNC(=N)NC)NC1=O [PSM-0354, DOTA-Cmp-Thr-Aib-Mcf-[Cys-Lys(Me)-Arg(Me)-Aib-Asn-Cys]-Tle-NH2] ({DOTA}-[X1]T[Aib][Phe(3-Cl)]C[Lys(Me)][Arg(Me)][Aib]NC[Tle]-NH2; disulfide 5-10) | < 200 nM | 12.6 to 126 nM

— patent publication US20260083865A1, “PROSTATE SPECIFIC MEMBRANE ANTIGEN (PSMA) LIGANDS AND USE THEREOF” (priority 2022, published 2026)
